Laboratory results reported in publication PMC6934184, “Selective DNA-PKcs inhibition extends the therapeutic index of localized radiotherapy and chemotherapy” (The Journal of Clinical Investigation, 2019).

Biological target: T1, CDK7/cyclin H/MNAT1 (Homo sapiens, UniProt P50613)
T1 construct: purchased Thermo Fisher Scientific (Life Technologies) SelectScreen
Assay: SelectScreen Adapta
Type: biochemical
Method in brief: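 NU5455 was profiled across the SelectScreen Broad panel of kinase activity and binding assays. Z'LYTE reactions such as CSF1R ran at apparent Km ATP, while the Adapta CAMK1 assay used ATP listed as 10. Values are given as percent.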

T1 sequence (P50613 whole entry): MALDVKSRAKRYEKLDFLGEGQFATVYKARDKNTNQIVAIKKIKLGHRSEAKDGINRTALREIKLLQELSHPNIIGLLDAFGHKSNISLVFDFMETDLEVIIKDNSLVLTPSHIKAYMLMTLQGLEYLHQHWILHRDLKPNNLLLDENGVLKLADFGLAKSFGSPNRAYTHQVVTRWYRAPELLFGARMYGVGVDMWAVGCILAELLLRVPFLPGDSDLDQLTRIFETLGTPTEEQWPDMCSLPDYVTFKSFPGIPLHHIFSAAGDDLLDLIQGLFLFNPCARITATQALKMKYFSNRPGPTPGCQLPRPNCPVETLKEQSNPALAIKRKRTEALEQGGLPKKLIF
T1 sequence (P51946 whole entry partner): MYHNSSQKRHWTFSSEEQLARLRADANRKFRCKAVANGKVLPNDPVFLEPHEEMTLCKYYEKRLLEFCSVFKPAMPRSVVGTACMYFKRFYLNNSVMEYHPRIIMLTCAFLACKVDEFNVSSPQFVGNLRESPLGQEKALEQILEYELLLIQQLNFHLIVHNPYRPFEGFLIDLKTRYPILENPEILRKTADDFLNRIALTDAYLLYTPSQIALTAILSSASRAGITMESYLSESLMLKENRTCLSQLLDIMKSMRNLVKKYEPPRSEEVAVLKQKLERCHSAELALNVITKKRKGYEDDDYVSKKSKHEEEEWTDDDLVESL
T1 sequence (P51948 whole entry partner): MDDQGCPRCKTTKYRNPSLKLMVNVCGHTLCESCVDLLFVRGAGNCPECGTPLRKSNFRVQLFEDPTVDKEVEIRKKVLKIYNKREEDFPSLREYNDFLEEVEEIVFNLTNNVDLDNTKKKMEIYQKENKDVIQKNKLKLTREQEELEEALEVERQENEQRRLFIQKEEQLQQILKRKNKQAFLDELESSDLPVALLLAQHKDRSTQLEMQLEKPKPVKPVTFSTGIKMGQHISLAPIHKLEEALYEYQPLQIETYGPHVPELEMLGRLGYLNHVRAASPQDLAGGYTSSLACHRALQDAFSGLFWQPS

## CN(C(=O)CN1CCOCC1)c1ccc2sc3c(-c4cccc5c(=O)cc(N6CC7CCC(C6)O7)oc45)cccc3c2c1 [NU5455]
  inhibition at 1 µM: 5.3%
